Measured values taken from patent publication US9926317B2, “Inhibitors of the renal outer medullary potassium channel” (Merck Sharp & Dohme Corp., priority 2014, dated 2018).

Biological target: T1, ROMK (Kir1.1) channel (Homo sapiens, UniProt P48048)
T1 sequence (P48048 1-391): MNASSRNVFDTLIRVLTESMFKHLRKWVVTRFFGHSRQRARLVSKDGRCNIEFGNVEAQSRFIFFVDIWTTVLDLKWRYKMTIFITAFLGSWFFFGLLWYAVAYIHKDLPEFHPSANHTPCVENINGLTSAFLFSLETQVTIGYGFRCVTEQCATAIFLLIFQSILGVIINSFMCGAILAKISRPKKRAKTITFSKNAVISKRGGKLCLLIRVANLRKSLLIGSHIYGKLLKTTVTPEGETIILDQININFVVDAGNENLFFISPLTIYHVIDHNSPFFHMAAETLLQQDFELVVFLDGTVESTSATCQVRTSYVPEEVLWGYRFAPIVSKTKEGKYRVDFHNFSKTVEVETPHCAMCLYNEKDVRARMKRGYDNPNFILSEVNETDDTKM
Assay: Thallium Flux Assay
Assay type: cell-based
Text: The compounds of Formula I according to the invention are inhibitors of ROMK, and therefore could be used as diuretic and/or natriuretic agents. ROMK inhibitors may be used to help to increase urination and increase urine volume and also to prevent or reduce reabsorption of sodium in the kidneys leading to increased excretion of sodium and water. Therefore, the compounds could be used for treatment or prophylaxis or both of disorders that benefit from increased excretion of water and sodium from the body. Accordingly, the compounds of this invention could be used in a method for inhibiting ROMK comprising administering a compound of Formula I in a ROMK-inhibitory effective amount to a patient in need thereof. This also encompasses the use of the compounds for inhibiting ROMK in a patient comprising administering a compound of claim 1 in a therapeutically effective amount to a patient in need of diueresis, natriuresis or both. […] Moreover, this invention also relates to the use of the compounds of Formula I or salts thereof to validate in vitro assays, for example but not limited to the Thallium Flux Assay described herein.
The following Thallium Flux Assay was performed on each of the final product compounds in the Examples.
A Thallium Flux Assay was performed on the compounds of the Examples. This assay has been described previously; see, e.g., PCT Published Application WO 2013/062900.

Row | SMILES | IC50 [nM]
1 | CC1=C(N2CCC3(CCN(C[C@H](O)c4ccc(-n5ncnn5)cc4)CC3)C2=O)COC1=O [Example 1, (R)-8-(2-(4-(2H-tetrazol-2-yl)phenyl)-2-hydroxyethyl)-2-(4-methyl-5-oxo-2,5-dihydrofuran-3-yl)-2,8-diazaspiro[4.5]decan-1-one] | 7
2 | CC1=C(N2CCC3(CCN(CC(O)c4ccc(-n5cnnc5)cc4)CC3)C2=O)COC1=O (racemic) [Example 2, 8-(2-(4-(4H-1,2,4-triazol-4-yl)phenyl)-2-hydroxyethyl)-2-(4-methyl-5-oxo-2,5-dihydrofuran-3-yl)-2,8-diazaspiro[4.5]decan-1-one] | 176
3 | C[C@H]1CC2(CCN(C[C@H](O)c3ccc(-n4ncnn4)cc3)CC2)C(=O)N1C1=CC(=O)OC1 [Example 6, (S)-8-((R)-2-(4-(2H-tetrazol-2-yl)phenyl)-2-hydroxyethyl)-3-methyl-2-(5-oxo-2,5-dihydrofuran-3-yl)-2,8-diazaspiro[4.5]decan-1-one] | 5
4 | C[C@H]1CC2(CCN(C[C@@H](O)c3ccc(-n4ncnn4)cc3)CC2)C(=O)N1C1=CC(=O)OC1 [Example 5, (S)-8-((S)-2-(4-(2H-tetrazol-2-yl)phenyl)-2-hydroxyethyl)-3-methyl-2-(5-oxo-2,5-dihydrofuran-3-yl)-2,8-diazaspiro[4.5]decan-1-one] | 3
5 | CC1=C(N2CCC3(CCN(C[C@@H](O)c4ccc(-n5ncnn5)cc4)CC3)C2=O)COC1=O [Example 4, (S)-8-(2-(4-(2H-tetrazol-2-yl)phenyl)-2-hydroxyethyl)-2-(4-methyl-5-oxo-2,5-dihydrofuran-3-yl)-2,8-diazaspiro[4.5]decan-1-one] | 7
6 | CC1=C(N2CCC3(CCN(CC(O)c4ccc(-n5cnnc5)nc4)CC3)C2=O)COC1=O (racemic) [Example 3, 8-(2-(6-(4H-1,2,4-triazol-4-yl)pyridin-3-yl)-2-hydroxyethyl)-2-(4-methyl-5-oxo-2,5-dihydrofuran-3-yl)-2,8-diazaspiro[4.5]decan-1-one] | 248
